Test results from patent publication US20260097101A1, “Compositions for Use in the Treatment of Diabetes or Obesity” (Dia Beta Labs Ltd, priority 2022, published 2026).
Where two headings read alike, the source gives them in different places. Each block holds one molecule with its values, some of them ahead of it. No end group written: not given here.

What was measured:
purified porcine DPP-4 = target: T1, purified porcine DPP-4 (Sus scrofa, UniProt P22411); test: In vitro DPP-4 stability (RP-HPLC and MALDI-ToF degradation profiles); assay type: in vitro ADME; conditions: for DPP-4 stability: pH 7.4
T1 construct: purchased Sigma-Aldrich
T1 sequence (P22411 whole entry): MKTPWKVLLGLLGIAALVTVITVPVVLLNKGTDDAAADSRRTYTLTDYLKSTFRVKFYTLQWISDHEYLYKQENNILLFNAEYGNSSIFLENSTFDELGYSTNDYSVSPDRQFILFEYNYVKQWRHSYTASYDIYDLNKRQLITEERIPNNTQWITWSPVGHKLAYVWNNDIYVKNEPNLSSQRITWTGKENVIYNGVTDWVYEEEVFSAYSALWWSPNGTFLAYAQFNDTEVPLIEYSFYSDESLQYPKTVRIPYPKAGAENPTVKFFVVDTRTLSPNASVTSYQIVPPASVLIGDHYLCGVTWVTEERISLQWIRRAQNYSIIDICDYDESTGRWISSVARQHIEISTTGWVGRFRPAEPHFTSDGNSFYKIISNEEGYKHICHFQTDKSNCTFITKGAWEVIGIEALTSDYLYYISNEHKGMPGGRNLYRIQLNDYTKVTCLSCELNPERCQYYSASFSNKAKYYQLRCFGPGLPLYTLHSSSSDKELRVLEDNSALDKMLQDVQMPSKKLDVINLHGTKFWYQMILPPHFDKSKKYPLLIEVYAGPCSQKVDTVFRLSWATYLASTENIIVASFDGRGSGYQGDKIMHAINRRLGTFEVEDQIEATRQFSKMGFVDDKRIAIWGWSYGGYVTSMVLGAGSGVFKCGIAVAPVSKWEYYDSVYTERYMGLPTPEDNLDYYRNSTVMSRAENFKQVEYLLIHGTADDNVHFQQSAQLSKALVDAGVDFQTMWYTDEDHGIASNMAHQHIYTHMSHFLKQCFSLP
Experimental: To establish in vitro stability of PP and [P^3]PP, peptides (10 μg) were incubated with purified porcine DPP-4 (5 mU in 50 mmol/l triethanolamine/HCl, pH 7.4; Sigma-Aldrich) for 0-8 hours and degradation profiles examined using RP-HPLC and MALDI-ToF, employing the same systems as outlined above. Sequence of native PP and [P3]PP using one letter amino acid notation. The amino acid substitution in [P3]PP is denoted by bold underlined text. In vitro DPP-4 stability was assessed following incubation of test peptides with purified DPP-4 (5 mU) for 0-8 h.

BRIN-BD11 cells = test: Beta-cell proliferation (Ki-67 staining), with and without Y4 antagonist (S)-VU0637120; assay type: cell-based, rodent; conditions: 10^-8 and 10^-6 M, 18 h
Experimental: FIG. 1 illustrates the effects PP peptides on cell viability, insulin release, proliferation and apoptosis from rodent BRIN-BD11 cells. (A) Cells were incubated with test peptides (10^−8-10^−6 M) for 18 h prior to addition of MTT. (B, C) Cells were incubated (20 min) with (B) 16.7 mM glucose or (C) 16.7 mM glucose supplemented with alanine (10 mM), alone and together with test peptides (10^−12-10^−6 M) and insulin secretion assessed by RIA. (D, E) To assess effects on BRIN BD11 beta-cell proliferation and apoptosis and receptor selectivity, cells were incubated with test peptides (10^−8-10^−6 M) alone, or together with cytokine mix (IL-1β 100 Uml, IFN-γ 20 U/ml, TNF-α 200 U/ml), in the absence and presence of the Y4 antagonist, (S)-VU0637120, (10^−5 M), as specified, for 18 h prior to staining for (D) Ki-67 or (E) TUNEL. Values are mean±SEM (n=8). *p<0.05, **p<0.01 and ***p<0.001 compared with appropriate control culture, namely (A, D, E) media alone or (B, C) 16.7 mM glucose. ^Δp<0.05, ^ΔΔp<0.01, ^ΔΔΔp<0.001 compared to (C) 10 mM alanine or (E) cytokine mix. ^φp<0.05, ^φφp<0.01, ^φφφp<0.001 compared to effects in the absence of the NPYR4 antagonist (S)-VU0637120. […] Proliferation/TUNEL positive frequency was determined using the cell-counter function on ImageJ Software and expressed as % of total cells analysed, as described previously from our laboratory. […]

- DPP-4 stability (purified porcine DPP-4): <2 h
Molecule: CC[C@H](C)[C@H](NC(=O)[C@H](Cc1ccc(O)cc1)NC(=O)[C@H](CCCNC(=N)N)NC(=O)[C@H](CCCNC(=N)N)NC(=O)[C@H](CC(C)C)NC(=O)[C@H](CC(=O)O)NC(=O)[C@H](C)NC(=O)[C@H](C)NC(=O)[C@H](Cc1ccc(O)cc1)NC(=O)[C@H](CCC(N)=O)NC(=O)[C@H](C)NC(=O)[C@H](CCSC)NC(=O)[C@H](CCC(N)=O)NC(=O)[C@H](CCC(=O)O)NC(=O)[C@@H]1CCCN1C(=O)[C@@H](NC(=O)[C@H](C)NC(=O)[C@H](CC(N)=O)NC(=O)[C@H](CC(=O)O)NC(=O)CNC(=O)[C@@H]1CCCN1C(=O)[C@H](Cc1ccc(O)cc1)NC(=O)[C@@H](NC(=O)[C@@H]1CCCN1C(=O)[C@H](CCC(=O)O)NC(=O)[C@H](CC(C)C)NC(=O)[C@@H]1CCCN1C(=O)[C@H](C)N)C(C)C)[C@@H](C)O)C(=O)N[C@@H](CC(N)=O)C(=O)N[C@@H](CCSC)C(=O)N[C@@H](CC(C)C)C(=O)N[C@H](C(=O)N[C@@H](CCCNC(=N)N)C(=O)N1CCC[C@H]1C(=O)N[C@@H](CCCNC(=N)N)C(=O)N[C@@H](Cc1ccc(O)cc1)C(N)=O)[C@@H](C)O [Native PP]
- DPP-4 mediated degradation (purified porcine DPP-4): generation of the N-terminally cleaved product, PP(3-36)

- DPP-4 mediated degradation (purified porcine DPP-4; incubation with DPP-4, 0-8 h): completely resistant
- DPP-4 stability (purified porcine DPP-4; purified DPP-4 (5 mU), incubation 0-8 h): >8 h
Molecule: APPEPVYPGDNAKPEQMAQYAADLRRYINMKTRPRY-NH2 (C-terminus assumed) [[P^3]PP]

Molecule: GLP-1: GLP-1 (10^-8 and 10^-6 M) employed as control in proliferation studies
- BRIN-BD11 cell proliferation (Ki-67) (BRIN-BD11 cells): augmented
